Data: patent US20230045685A1, “COPPER CLUSTERS, COMPOSITION, AND METHOD FOR TREATMENT OF LIVER CIRRHOSIS” (Wuhan Vast Conduct Science Foundation CO., LTD., priority 2020, published 2023)

Experiments:
[1] = test system: CCl4-induced liver cirrhosis in a mouse model; test: Serum biochemical testing (ALT, AST, TBil, MAO, ALB) in CCl4-induced liver cirrhosis model mice; assay type: in vivo, C57BL/6N mice; conditions: sorafenib 25 mg/kg intragastrically, once a day for 20 days
Description: (§1) 70 SPF male C57BL/6N mice, 6-8 weeks old and 16-20 g body weight, were purchased from Beijing Huafukang Experimental Animal Technology Co., Ltd. (production license number: SOCK (Jing) 2019-0008). According to body weight, they were randomly divided into 7 groups (n=10): blank control group, model group, positive control group, Cu-1 low dose group, Cu-1 high dose group, Cu-2 low dose group, Cu-2 high dose group.
(§2) Except for the blank control group, liver cirrhosis model of mice in other groups was prepared by the treatment of carbon tetrachloride (CCl4)-induction method. The modeling protocoal was as follows: (1) Each mouse was intraperitoneally injected with 10% CCl4 (diluted with olive oil) at 7 μL/g body weight, twice a week for a total of 8 weeks; mice of the blank control group were injected intraperitoneally with the same amount of olive oil solvent. (2) from the 6th week, two mice were selected and killed 48 hours after the last injection every week. The appearance of the liver was observed. After the appearance was in line with the characteristics of cirrhosis (the 8th week), the liver tissue was fixed with formalin. HE staining and Masson staining were used to evaluate the model of cirrhosis. […]

[2] = test system: CCl4-induced liver cirrhosis in a mouse model; test: HE staining pathological examination of liver tissue in CCl4-induced liver cirrhosis model mice; assay type: in vivo, C57BL/6N mice; conditions: sorafenib 25 mg/kg intragastrically, 20 days, vs model control group
Description: as §1, §2

CNC(=O)c1cc(Oc2ccc(NC(=O)Nc3ccc(Cl)c(C(F)(F)F)c3)cc2)ccn1 [Sorafenib]
serum ALT activity ([1]; model group 188.5±4.9, P<0.01): 42.8±5.4 U/L
serum AST activity ([1]; model group 192.0±11.3, P<0.05): 165.5±11.6 U/L
HE staining: liver pathology [2]: significant reduction of liver damages
